“Also recorded” adds a separate entry of the source.
What was measured:
ERα = target: T1, ERα (Homo sapiens, UniProt P03372); assay: Luciferase activity of ligands on the activation of the NKG2E ERE in U2OS-ERα cells; type: cell-based; details: for Activity in ERα U2OS cells: indicated micromolar concentrations, 24 hours; for Activation of ERα (NKG2E ERE luciferase activity): U2OS-ERα cells
T1 construct: expressed in transfected cells; host or cells: U2OS
T1 sequence (P03372 1-595): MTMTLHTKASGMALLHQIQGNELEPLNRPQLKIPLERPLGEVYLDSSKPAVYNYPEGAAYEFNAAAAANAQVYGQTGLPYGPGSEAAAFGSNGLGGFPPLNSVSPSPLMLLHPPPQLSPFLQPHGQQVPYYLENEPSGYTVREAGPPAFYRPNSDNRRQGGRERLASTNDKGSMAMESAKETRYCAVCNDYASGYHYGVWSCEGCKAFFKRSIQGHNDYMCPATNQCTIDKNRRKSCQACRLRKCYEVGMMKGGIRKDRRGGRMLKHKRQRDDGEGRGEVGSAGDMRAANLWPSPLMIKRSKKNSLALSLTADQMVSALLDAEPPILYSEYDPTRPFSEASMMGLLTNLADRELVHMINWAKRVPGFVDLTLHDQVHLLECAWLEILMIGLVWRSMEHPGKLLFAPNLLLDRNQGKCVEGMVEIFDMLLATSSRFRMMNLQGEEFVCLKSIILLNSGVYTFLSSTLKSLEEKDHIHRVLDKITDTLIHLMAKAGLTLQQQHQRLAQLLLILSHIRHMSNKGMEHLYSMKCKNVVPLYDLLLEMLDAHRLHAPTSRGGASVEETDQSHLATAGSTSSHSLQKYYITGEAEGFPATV
Description: (§1) U2OS cells (wild type) were maintained in 5% charcoal-dextran stripped FBS.

ERβ = target: T2, ERβ (Homo sapiens, UniProt Q92731); assay: Luciferase activity in U2OS cells transfected with NKG2E-TK-Luc and ERβ; type: cell-based; details: 200 nM
T2 construct: expressed in transfected cells; host or cells: U2OS
T2 sequence (Q92731 whole entry): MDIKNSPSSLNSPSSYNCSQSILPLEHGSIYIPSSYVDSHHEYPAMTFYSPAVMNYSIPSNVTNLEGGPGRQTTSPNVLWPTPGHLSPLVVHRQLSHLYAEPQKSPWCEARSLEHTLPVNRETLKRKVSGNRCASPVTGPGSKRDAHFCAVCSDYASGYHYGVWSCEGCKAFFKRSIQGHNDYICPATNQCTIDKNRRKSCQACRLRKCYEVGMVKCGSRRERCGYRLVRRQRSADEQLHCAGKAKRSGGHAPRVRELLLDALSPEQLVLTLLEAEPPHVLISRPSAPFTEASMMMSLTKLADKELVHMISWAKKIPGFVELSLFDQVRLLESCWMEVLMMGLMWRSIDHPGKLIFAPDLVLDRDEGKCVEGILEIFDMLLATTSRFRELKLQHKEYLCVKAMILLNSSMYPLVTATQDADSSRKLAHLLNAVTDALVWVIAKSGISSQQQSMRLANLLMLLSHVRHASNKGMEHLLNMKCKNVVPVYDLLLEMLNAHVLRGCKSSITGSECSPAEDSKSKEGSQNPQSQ
Procedure: as §1
Luciferase activity for each of the tested compounds was recorded.

GRE-TK-Luk, GR, and ERβ = assay: Luciferase activity in GRE-TK-Luc-transfected U2OS-ERβ cells with doxycycline and hydrocortisone; type: cell-based; details: HC 100 nM; compounds at 0.5, 1, 2.5 and 5 μM; doxycycline
Procedure: Example 12: Luciferase Activity in GRE-TK-Luc-Transfected U2OS-ERβ cells with doxycycline. Doxycycline-dependent U2OS cells were transfected with GRE-TK-Luk, GR, and ERβ in the presence of hydrocortisone (HC, 100 nM) alone or in combination with Liquiritigenin, A10, A13, and A15. Luciferase activity for each of the compounds at 0.5, 1, 2.5 and 5 μM concentration was recorded.

[1] = system: MCF-7 breast cancer cells; assay: Effects of ERβ compounds on breast cancer tumor formation (histology, FIG. 16A-B); type: in vivo; details: in comparison to estradiol
[2] = Effects of ERβ compounds on uterine weight (histology, FIG. 16A-B); type: in vivo; details: in comparison to estradiol
Description: Example 11: Effects of ERβ compounds on uterine and breast cancer cells.

Molecule: O=c1c(O)c(-c2ccc(O)cc2)oc2ccccc12 [3,4′-Dihydroxyflavone]
- Activity in ERα U2OS cells (ERα): little or no activity

Molecule: O=c1cc(-c2ccc(O)cc2)oc2cccc(O)c12 [5,4′-Dihydroxyflavone]
- Activation of ERβ (NKG2E-TK-Luc luciferase activity) (ERβ): activate ERβ
- Activity in ERα U2OS cells (ERα): little or no activity

Molecule: O=c1cc(-c2ccc(O)cc2)oc2ccc(O)cc12 [6,4′-Dihydroxyflavone]
- Activation of ERβ (NKG2E-TK-Luc luciferase activity) (ERβ): activate ERβ
- Activation of ERα (NKG2E ERE luciferase activity) (ERα; 1 μM): activate ERα
- Activity in ERα U2OS cells (ERα): little or no activity

Molecule: COc1c(O)cc2oc(-c3ccc(O)c(O)c3)cc(=O)c2c1O [6-methoxyluteolin]
- Activity in ERα U2OS cells (ERα): little or no activity

Molecule: O=c1cc(-c2ccccc2O)oc2cc(O)ccc12 [7,2′-Dihydroxyflavone]
- Activity in ERα U2OS cells (ERα): little or no activity

Molecule: O=c1cc(-c2cccc(O)c2)oc2cc(O)ccc12 [7,3′-Dihydroxyflavone]
- Activity in ERα U2OS cells (ERα): little or no activity

Molecule: O=c1cc(-c2ccc(O)cc2)oc2cc(O)ccc12 [7,4′-Dihydroxyflavone]
- Activation of ERβ (NKG2E-TK-Luc luciferase activity) (ERβ): activate ERβ
- Activation of ERα (NKG2E ERE luciferase activity) (ERα; 5 μM): activate ERα
- Activity in ERα U2OS cells (ERα): little or no activity

Molecule: O=C(/C=C/c1cccc(O)c1)c1ccc(O)c(O)c1O [A10, (E)-3-(3-hydroxyphenyl)-1-(2,3,4-trihydroxyphenyl) prop-2-en-1-one]
- Effect on hydrocortisone (HC) induced luciferase activity (GRE-TK-Luk, GR, and ERβ): attenuated the effect of HC

Molecule: O=C(/C=C/c1ccc(O)cc1)c1ccccc1 [A15, (E)-3-(4-hydroxyphenyl)-1-phenylprop-2-en-1-one]
- Effect on hydrocortisone (HC) induced luciferase activity (GRE-TK-Luk, GR, and ERβ): attenuated the effect of HC

Molecule: O=C(/C=C/c1ccc(O)cc1)c1ccc(O)cc1 [Analog 13, (E)-1,3-bis(4-hydroxyphenyl) prop-2-en-1-one]
- Activation of ERβ (NKG2E-TK-Luc luciferase activity) (ERβ): activate ERβ
- Activation of ERα (NKG2E ERE luciferase activity) (ERα; 5 μM): activate ERα
- Effect on hydrocortisone (HC) induced luciferase activity (GRE-TK-Luk, GR, and ERβ): attenuated the effect of HC

Molecule: O=c1cc(-c2ccc(O)cc2)oc2cc(O)cc(O)c12 [Apigenin]
- Activation of ERβ (NKG2E-TK-Luc luciferase activity) (ERβ): activate ERβ

Molecule: COc1ccc(-c2coc3cc(O)ccc3c2=O)cc1O [Calycosin]
- Breast cancer tumor formation ([1]; listed as IATERB6): do not increase uterine weight or cause breast cancer tumor formation; also recorded: do not increase uterine breast cancer tumor formation
- Uterine weight [2]: do not increase uterine weight
- Activity in ERα U2OS cells (ERα): little or no activity

Molecule: Oc1ccc([C@H]2COc3cc(O)ccc3C2)cc1 [Equol]
- Activation of ERα (NKG2E ERE luciferase activity) (ERα; 1 μM): activate ERα
- Activity in ERα U2OS cells (ERα): little or no activity

Molecule: O=c1c(O)c(-c2ccccc2)oc2cc(O)cc(O)c12 [Galangin]
- Activity in ERα U2OS cells (ERα): little or no activity

Molecule: O=C1C[C@@H](c2ccc(O)cc2)Oc2cc(O)ccc21 [Liquiritigenin]
- Breast cancer tumor formation ([1]; listed as IATERB7): do not increase uterine weight or cause breast cancer tumor formation; also recorded: do not increase uterine breast cancer tumor formation
- Uterine weight [2]: do not increase uterine weight
- Activation of ERα (NKG2E ERE luciferase activity) (ERα; 5 μM): activate ERα
- Activity in ERα U2OS cells (ERα): little or no activity
- Effect on hydrocortisone (HC) induced luciferase activity (GRE-TK-Luk, GR, and ERβ): attenuated the effect of HC

Molecule: O=c1cc(-c2ccc(O)c(O)c2)oc2cc(O)cc(O)c12 [Luteolin]
- Activity in ERα U2OS cells (ERα): little or no activity

Molecule: O=C1C[C@@H](c2ccc(O)cc2)Oc2cc(O)cc(O)c21 [Naringenin]
- Activation of ERβ (NKG2E-TK-Luc luciferase activity) (ERβ): activate ERβ
- Activity in ERα U2OS cells (ERα): little or no activity

Molecule: C=C[C@H](/C=C\c1ccc(O)cc1)c1ccc(O)cc1 [Nyasol]
- Activation of ERβ (NKG2E-TK-Luc luciferase activity) (ERβ): activate ERβ
- Breast cancer tumor formation ([1]; listed as IATERB5): do not increase uterine weight or cause breast cancer tumor formation; also recorded: do not increase uterine breast cancer tumor formation
- Uterine weight [2]: do not increase uterine weight
- Activation of ERα (NKG2E ERE luciferase activity) (ERα; 1 μM): activate ERα
- Activity in ERα U2OS cells (ERα): little or no activity

Molecule: COc1c(O)cc(O)c2c(=O)cc(-c3ccccc3)oc12 [Wogonin]
- Activity in ERα U2OS cells (ERα): little or no activity

Molecule: Broussonin A
- Activation of ERα (NKG2E ERE luciferase activity) (ERα; 1 μM): activate ERα
- Activity in ERα U2OS cells (ERα): little or no activity

Source: US20250195452A1, “ER-BETA ESTROGENIC COMPOUNDS AND METHODS OF USE” (laterion, Inc., priority 2022, published 2025)
